The values that follow come from patent US20220194938A1, “NOVEL COMPOUNDS AND PHARMACEUTICAL COMPOSITIONS THEREOF FOR THE TREATMENT OF INFLAMMATORY DISORDERS” (GALAPAGOS NV, priority 2019, published 2022).

One series deals with T1, human IRAK-4 (Homo sapiens, UniProt Q9NWZ3).
T1 construct: purchased Carna Biosciences 09 145
T1 sequence (Q9NWZ3 1-460): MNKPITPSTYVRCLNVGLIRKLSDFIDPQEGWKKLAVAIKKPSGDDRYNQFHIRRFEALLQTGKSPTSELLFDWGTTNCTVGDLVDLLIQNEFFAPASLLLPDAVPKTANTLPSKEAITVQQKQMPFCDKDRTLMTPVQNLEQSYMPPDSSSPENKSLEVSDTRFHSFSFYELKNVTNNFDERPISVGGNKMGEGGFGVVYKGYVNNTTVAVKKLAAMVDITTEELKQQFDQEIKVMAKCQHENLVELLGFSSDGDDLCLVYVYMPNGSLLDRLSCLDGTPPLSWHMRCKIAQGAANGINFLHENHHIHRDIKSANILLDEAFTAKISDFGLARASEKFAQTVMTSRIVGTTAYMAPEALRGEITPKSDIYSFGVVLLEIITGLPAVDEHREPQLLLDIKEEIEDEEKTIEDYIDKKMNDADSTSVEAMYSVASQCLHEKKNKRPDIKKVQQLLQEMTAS
The series is described as follows: Phosphorylation IC50 determination for human IRAK-4 (ADP-Glo kinase assay). Particulars: human IRAK-4, RIP140 substrate, Km ATP; read-out: IRAK4 ADPglo biochemical assay IC50. As to the method:
3.1. Phosphorylation IC50 Determination for Human IRAK-4
The phosphorylation of the substrate RIP140 (SEQ ID1) by IRAK4 at Km ATP was detected with the ADP-Glo Kinase Assay (Promega, Cat #V9103), a luminescent kinase assay which measures the ADP formed from a kinase reaction. (Zegzouti et al. 2009) In a second step the kinase reaction was terminated and all the remaining ATP was depleted. In a final step the ADP was converted into ATP and this newly synthesized ATP was measured by using a luciferase/luciferin reaction with a luminescent reader. The luminescent signal positively correlated with kinase activity, in particular kinase inhibition giving a decrease of the luminescent signal.
For the semi-automated assay, the positive control (100% inhibition) was prepared by diluting 10 mM staurosporine stock mixture (20 μL) in water (3.8 mL) and DMSO (180 μL), thus resulting in a […] staurosporine solution at 1% DMSO (final concentration after further dilution in the kinase reaction).
For the automated assay, no pre-dilution of the 10 mM staurosporine stock was made. 10 mM staurosporine was spotted directly in the assay plate using acoustic dispensing and complemented with DMSO to result in a similar final concentration as mentioned above.
For the semi-automated assay, the negative control (0% inhibition) was prepared by mixing water (3.8 mL) and DMSO (200 μL) resulting in a final concentration of 1% DMSO after further dilution in the kinase reaction. For the automated assay no pre-dilution of DMSO was done. 100% DMSO was spotted directly on the assay plate.
The assay buffer solution was prepared at a concentration corresponding to 5 fold the final (most diluted) assay concentration by mixing a solution of 125 mM TRIS pH 7.5+0.05% Triton X-100+2.5 mM EGTA (5.27 mL) with 1M mgCl2 (72 μL), 1M DTT (57.6 μL), and 200 mM MnCl2 (360 μL).
For example, for the semi-automated method, the enzyme-substrate mixture was prepared by mixing water (3999 μL), assay buffer solution (1380 μL), 1 mM RIP140 (138 μL—SEQ ID1), and 200 ng/mL IRAK 4 (3.45 μL Carna Biosciences, 09 145).
For semi-automated method, the ATP mixture was prepared at a concentration corresponding to 2.5 fold the final (most diluted) assay concentration of the semi-automated method and 1.5 fold the final (most diluted) assay concentration of the automated method. For example, for the semi-automated method, the ATP mixture was prepared by mixing water (4126 μL), assay buffer solution (1380 μL), and 10 mM ATP (13.80 μL).
The assay was performed either in a semi-automated or fully automated manner. The assay volume and the incubation time of the ADP detection were different accordingly the method used.
3.1.3.1. Semi-Automated Assay
The compounds were prepared as a serial dilution of 10 point dose responses with 1/5 dilution steps in 100% DMSO starting from 2 mM highest concentration, diluted 1/20 in water. 1 μL was transferred dry to the assay plates.
On each assay plate 32 wells of each control (positive & negative) were added, followed by 2 μL enzyme-substrate mixture.
The reaction was started by adding 2 μL diluted ATP (final concentration Km ATP) on the assay plates. Plates were centrifuged for a few seconds at 1000 rpm followed by an incubation at r.t. for 120 min.
The reactions were stopped and the unconsumed ATP was depleted by adding 5 μL ADP-glo Reagent (Promega, Cat #V9103) to the reaction. The plates were quickly centrifuged at 1000 rpm and incubated at r.t. for 40 min corresponding to full ATP depletion.
The ADP was converted back to ATP and luciferase and luciferin were introduced to detect ATP by adding 10 μL kinase detection reagent (Promega, Cat #V9103) to the reaction. The plates were centrifuged for a few seconds at 1000 rpm and incubated at r.t. for a further 30 min.
Luminescent read out was performed on an Envision luminescent reader (Perkin Elmer). […]
(ADP-Glo first removes unused ATP, then detects ADP through luciferase.)

Series [1] deals with pooled cryopreserved hepatocytes. The series is described as follows: Metabolic stability in hepatocytes (human). It counts as in vitro ADME. The following applies: 1 μM test compound. On the procedure: (§1) 4.6. Metabolic Stability in Hepatocytes
(§2) The aim of this assay is to determine the metabolic stability of the compound in hepatocytes (cryopreserved) of different species. Low hepatocyte stability may result in the formation of unwanted metabolites, high clearance, and therefore is not desirable.
(§3) The decrease in parent was assessed by measuring the percentage remaining by LC-MS/MS analysis.
(§4) A 10 mM stock solution of test compound in DMSO was first diluted in DMSO to 3 mM, and then in modified Krebs-Henseleit buffer (Sigma, K3753) to 5 μM. This compound dilution was added to a suspension of pooled cryopreserved hepatocytes (BioreclamationIVT) at 37° C. under gentle shaking.
(§5) Final reaction conditions were: 1 μM of test compound, 0.03% DMSO, 0.5 million viable hepatocytes/mL, and 75 μL incubation volume.
(§6) Testosterone (1 μM) and 7-hydroxycoumarin (1 μM) were used, respectively as phase I and phase II metabolic reaction controls.
(§7) After 0, 10, 20, 45, 90, 120 and 180 min of incubation, the reaction was terminated with 225 μL of MeCN:MeOH (2:1) containing 100 ng/mL of diclofenac as analytical internal standard. Samples were mixed, centrifuged and the supernatant analyzed by LC-MS/MS.
(§8) The instrument responses (ratios of test compound and internal standard peak areas) were referenced to the zero time point samples (considered as 100%) in order to determine the percentage of compound remaining.
(§9) Plots of percentage compound remaining are used to determine the intrinsic clearance in the hepatocyte incubations using the following equations:
(§10) Scaled Clint[L/h/kg]=Clint[μL/min/10^6 cells]*#(10^6) cells/g liver*60*(1/10^6) Scaled Clint unbound [L/h/kg]=Clint [L/h/kg]/Fu,inc where: fu,inc equals hepatocyte binding, derived from microsomal binding (fu,mic) by following equation: […]

The test system is the same in series [2]. The series is described as follows: Metabolic stability in hepatocytes (mouse). In kind it is in vitro ADME. The following applies: 1 μM test compound. On the procedure:
as §1, §2, §3, §4, §5, §6, §7, §8, §9, §10

For orientation: IC50 means the concentration that inhibits the measured activity by half. For `COc1cc2nc(CCC(C)(C)O)cn2cc1NC(=O)c1cccnc1O` [Compound 9, 2-hydroxy-N-[2-(3-hydroxy-3-methyl-butyl)-7-methoxy-imidazo[1,2-a]pyridin-6-yl]pyridine-3-carboxamide], the half-inhibitory concentration (IC50) on human IRAK-4 fell in the range of 5 to 10 nM.

Take `COc1cc2nc(CCC(C)(C)O)cn2cc1NC(=O)c1nc(C)ccc1Cl` [Compound 11, 3-chloro-N-[2-(3-hydroxy-3-methyl-butyl)-7-methoxy-imidazo[1,2-a]pyridin-6-yl]-6-methyl-pyridine-2-carboxamide]: at human IRAK-4, the half-inhibitory concentration (IC50) was above 50 nM.

Turning to `COc1cc2nc(CCC(C)(C)O)cn2cc1NC(=O)c1cccc(CC#N)n1` [Compound 14, 6-(cyanomethyl)-N-[2-(3-hydroxy-3-methyl-butyl)-7-methoxy-imidazo[1,2-a]pyridin-6-yl]pyridine-2-carboxamide], on human IRAK-4, the IC50 is 5 to 10 nM. For the same compound, the “Human (Perc. remaining at 90 min)” value in series [1] turned out to be 89.95%. In addition, the “Mouse (Perc. remaining at 90 min)” value in series [2] was found to be 23.5%.

Turning to `COc1cc2nc(CCC(C)(C)O)cn2cc1NC(=O)c1ccc(F)c(C)n1` [Compound 15, 5-fluoro-N-[2-(3-hydroxy-3-methyl-butyl)-7-methoxy-imidazo[1,2-a]pyridin-6-yl]-6-methyl-pyridine-2-carboxamide], the IC50 on human IRAK-4 fell in the range of 0.1 to 5 nM. Also, the “Human (Perc. remaining at 90 min)” value in series [1] turned out to be 48.5%. In series [2], the “Mouse (Perc. remaining at 90 min)” value was 60.05%.

Regarding `COc1cc2nc(CCC(C)(C)O)cn2cc1NC(=O)c1cncc(C)n1` [Compound 16, N-[2-(3-hydroxy-3-methyl-butyl)-7-methoxy-imidazo[1,2-a]pyridin-6-yl]-6-methyl-pyrazine-2-carboxamide], on human IRAK-4, the 50% inhibitory concentration (IC50) lay in the range of 10 to 50 nM. Moreover, the “Human (Perc. remaining at 90 min)” value in series [1] is 29.2%. Besides, in series [2], the “Mouse (Perc. remaining at 90 min)” value was determined as 74.55%.

Take `COc1cc2nc(CCC(C)(C)O)cn2cc1NC(=O)c1cncc(C(F)(F)F)n1` [Compound 17, N-[2-(3-hydroxy-3-methyl-butyl)-7-methoxy-imidazo[1,2-a]pyridin-6-yl]-6-(trifluoromethyl)pyrazine-2-carboxamide]: the IC50 at human IRAK-4 fell in the range of 10 to 50 nM.

With `COc1cc2nc(CCC(C)(C)O)cn2cc1NC(=O)c1cccc(CO)n1` [Compound 21, 6-(hydroxymethyl)-N-[2-(3-hydroxy-3-methyl-butyl)-7-methoxy-imidazo[1,2-a]pyridin-6-yl]pyridine-2-carboxamide], at human IRAK-4, the IC50 was 0.1 to 5 nM. Further, in series [1], the “Human (Perc. remaining at 90 min)” value is given as 71.95%. Also, the “Mouse (Perc. remaining at 90 min)” value in series [2] worked out at 34.9%.

Take `COc1cc2nc(CCS(C)(=O)=O)cn2cc1NC(=O)c1cccn(C(F)F)c1=O` [Compound 26, 1-(difluoromethyl)-N-[7-methoxy-2-(2-methylsulfonylethyl)imidazo[1,2-a]pyridin-6-yl]-2-oxo-pyridine-3-carboxamide]: the IC50 at human IRAK-4 lay in the range of 5 to 10 nM. For the same compound, the “Human (Perc. remaining at 90 min)” value in series [1] turned out to be 106%.

As for `CNC(=O)c1cc2nc(CCS(C)(=O)=O)cn2cc1NC(=O)c1cccc(C(F)(F)F)n1` [Compound 30, N-methyl-2-(2-methylsulfonylethyl)-6-[[6-(trifluoromethyl)pyridine-2-carbonyl]amino]imidazo[1,2-a]pyridine-7-carboxamide], the IC50 on human IRAK-4 was 10 to 50 nM.

Turning to `COc1cc2nc(CCC(C)(C)O)cn2cc1NC(=O)c1ccc(F)c(Cl)n1` [Compound 32, 6-chloro-5-fluoro-N-[2-(3-hydroxy-3-methylbutyl)-7-methoxyimidazo[1,2-a]pyridin-6-yl]pyridine-2-carboxamide], the IC50 at human IRAK-4 was 10 to 50 nM.

Consider `CC(C)(O)CCc1cn2cc(NC(=O)c3cccc(C(F)(F)F)n3)c(Br)cc2n1` [Compound 36, N-[7-bromo-2-(3-hydroxy-3-methyl-butyl)imidazo[1,2-a]pyridin-6-yl]-6-(trifluoromethyl)pyridine-2-carboxamide], for which the 50% inhibitory concentration (IC50) on human IRAK-4 was 0.1 to 5 nM.

Consider `CN1CC(NC(=O)c2cc3nc(CCC(C)(C)O)cn3cc2NC(=O)c2cccc(C(F)(F)F)n2)C1` [Compound 43, 2-(3-hydroxy-3-methylbutyl)-N-(1-methylazetidin-3-yl)-6-(6-(trifluoromethyl)picolinamido)imidazo[1,2-a]pyridine-7-carboxamide], for which the IC50 at human IRAK-4 is 5 to 10 nM.

Turning to `CC(C)(O)CCc1cn2cc(NC(=O)c3cccc(C(F)(F)F)n3)c(C(=O)NC3COC3)cc2n1` [Compound 44, 2-(3-hydroxy-3-methylbutyl)-N-(oxetan-3-yl)-6-(6-(trifluoromethyl)picolinamido)imidazo[1,2-a]pyridine-7-carboxamide], the IC50 at human IRAK-4 was 5 to 10 nM.

In the case of `CC(C)(O)CCc1cn2cc(NC(=O)c3cccc(C(F)(F)F)n3)c(C(=O)NCC3CC3)cc2n1` [Compound 45, N-(cyclopropylmethyl)-2-(3-hydroxy-3-methylbutyl)-6-(6-(trifluoromethyl)picolinamido)imidazo[1,2-a]pyridine-7-carboxamide], the concentration for half-maximal inhibition (IC50) at human IRAK-4 was in the range of 5 to 10 nM.

As to `CC(C)(O)CCc1cn2cc(NC(=O)c3cccc(C(F)(F)F)n3)c(C(=O)NC3(C)CC3)cc2n1` [Compound 46, 2-(3-hydroxy-3-methylbutyl)-N-(1-methylcyclopropyl)-6-(6-(trifluoromethyl)picolinamido)imidazo[1,2-a]pyridine-7-carboxamide], the IC50 at human IRAK-4 was 5 to 10 nM.

In the case of `CC(C)(O)CCc1cn2cc(NC(=O)c3cccc(C(F)(F)F)n3)c(C(=O)NC3CCOC3)cc2n1` (stereo not shown) [Compound 47, 2-(3-hydroxy-3-methylbutyl)-N-(tetrahydrofuran-3-yl)-6-(6-(trifluoromethyl)picolinamido)imidazo[1,2-a]pyridine-7-carboxamide], the IC50 on human IRAK-4 fell in the range of 5 to 10 nM.
